Data on 38 compounds can be found in patent publication US20230140290A1, “SALICYLAMIDE DERIVATIVES AND RELATED METHODS OF MAKING” (THE BOARD OF REGENTS OF THE UNIVERSITY OF TEXAS SY, priority 2020, published 2023).

Series [1] relates to HAdV5-GFP. The series can be described thus: Plaque assay (inhibition of HAdV plaque formation). In kind it is cell-based, HAdV-5. As to conditions: for inhibition at 10 µM: read-out: Plaque Assay (%) Inhibition (10 μM); for IC50: read-out: Plaque Assay IC50 (μM), HAdV5-GFP, low MOI, 293β5 cell line; for Selectivity index (SI): ratio of CC50 to IC50 in plaque assay; for EC50: read-out: EC50 (plaque assay). On the procedure: Plaque Assay. […] When cells reached 80-90% confluency, they were infected with HAdV5-GFP (0.06 vp/cell) and rocked for 2 h at 37° C. After the incubation the inoculum was removed, and the cells were washed once with PBS.
Plaque Assay. Compounds were tested using low MOI infections (0.06 vp/cell) and at concentrations of 10 μM and in a dose-response assay ranging from 10 to 0.3 μM in a plaque assay. […] When cells reached 80-90% confluency, they were infected with HAdV5-GFP (0.06 vp/cell) and rocked for 2 h at 37° C. After the incubation the inoculum was removed, and the cells were washed once with PBS. […] The mixture also contained the compounds in concentrations ranging from 10 to 0.3 μM.

For series [2], the system named is A549 cells. Kind of series: Cytotoxicity assay (AlamarBlue). Conditions: read-out: CC50 (μM), cytotoxic concentration 50%; A549 cell line, 48 h. On the procedure:
Cytotoxicity Assay. The cytotoxicity of the compounds was analyzed by commercial kit AlamarBlue® (Invitrogen, Ref. DAL1025). A549 cells at a density of 5×10^3 cells per well in 96-well plates were seeded. […] Cells were then incubated at 37° C. for 48 h following the kit protocol. The cytotoxic concentration 50 (CC50) value was obtained using the statistical package GraphPad Prism. This assay was performed in duplicate.

Structures are written as SMILES. Structures can show the parent of a compound that is named as a salt.

One may read the inhibition as the change of the read-out against control, counted positive when it falls. Broadly, the IC50 is the point on the concentration scale where inhibition reaches its midpoint. Take `O=C(Nc1ccc([N+](=O)[O-])c(Cl)c1)c1cc(Cl)ccc1O` [Compound 10, 5-Chloro-N-(3-chloro-4-nitrophenyl)-2-hydroxybenzamide]: in series [1], the inhibition at 10 µM was 100% and the IC50 was found to be 1 µM.

`O=C(Nc1cc([N+](=O)[O-])ccc1F)c1cc(Cl)ccc1O` [Compound 12, 5-Chloro-N-(2-fluoro-5-nitrophenyl)-2-hydroxybenzamide]: in series [1], the “Selectivity index (SI)” value was found to be 26.2, the inhibition at 10 µM amounted to 100% and the 50% inhibitory concentration (IC50) was determined as 0.31 µM. Besides, the CC50 in series [2] was 8.1 ± 3.2 µM.

As to `O=C(Nc1ccc(F)c(F)c1)c1cc(Cl)ccc1O` [Compound 15, 5-Chloro-N-(3,4-difluorophenyl)-2-hydroxybenzamide], in series [1], the “Selectivity index (SI)” value stood at 29.6, the inhibition at 10 µM turned out to be 100% and the IC50 came to 0.27 µM. The CC50 in series [2] was 8 µM.

For the compound `O=C(Nc1cc(C(F)(F)F)cc(C(F)(F)F)c1)c1cc(Cl)ccc1O` [Compound 16, N-(3,5-Bis(trifluoromethyl)phenyl)-5-chloro-2-hydroxybenzamide], in series [1], the “Selectivity index (SI)” value came to 68.3, the inhibition at 10 µM turned out to be 100% and the IC50 is 0.06 µM. In series [2], the CC50 was 4.1 µM.

As for `O=C(NCc1ccc(F)cc1F)c1cc(Cl)ccc1O` [Compound 33, 5-Chloro-N-(2,4-difluorobenzyl)-2-hydroxybenzamide], the inhibition at 10 µM in series [1] is 74.7 ± 6.9%.

`O=C(NCc1ccc(F)c(F)c1)c1cc(Cl)ccc1O` [Compound 34, 5-Chloro-N-(3,4-difluorobenzyl)-2-hydroxybenzamide]: the inhibition at 10 µM in series [1] stood at 37.2 ± 23.4%.

As for `O=C(NCc1cccc(Cl)c1)c1cc(Cl)ccc1O` [Compound 39, 5-Chloro-N-(3-chlorobenzyl)-2-hydroxybenzamide], the inhibition at 10 µM in series [1] was 72 ± 1.5%.

Consider `O=C(NCc1ccc(F)cc1)c1cc(Cl)ccc1O` [Compound 40, 5-Chloro-N-(4-fluorobenzyl)-2-hydroxybenzamide], for which the inhibition at 10 µM in series [1] stood at 72 ± 3%.

With `CN(Cc1ccc(F)cc1)C(=O)c1cc(Cl)ccc1O` [Compound 41, 5-Chloro-N-(4-fluorobenzyl)-2-hydroxy-N-methylbenzamide], in series [1], the inhibition at 10 µM worked out at 0%.

In the case of `O=C(NCc1ccccc1)c1cc(Cl)ccc1O` [Compound 45, N-Benzyl-5-chloro-2-hydroxybenzamide], the inhibition at 10 µM in series [1] was 12.7 ± 2.9%.

`COc1ccc([C@@H](C)NC(=O)c2cc(Cl)ccc2O)cc1` [Compound 50, (R)-5-Chloro-2-hydroxy-N-(1-(4-methoxyphenyl)ethyl)benzamide]: in series [1], the inhibition at 10 µM stood at 33.5 ± 14.8%.

Consider `O=C(Cc1cc(Cl)ccc1O)Nc1ccc([N+](=O)[O-])cc1Cl` [Compound 54, 2-(5-Chloro-2-hydroxyphenyl)-N-(2-chloro-4-nitrophenyl)acetamide], for which the inhibition at 10 µM in series [1] turned out to be 0%.

Consider `CC(C)C[C@H](NC(=O)c1cc(Cl)ccc1O)C(=O)Nc1ccc([N+](=O)[O-])cc1Cl` [Compound 61, (S)-5-Chloro-N-(1-((2-chloro-4-nitrophenyl)amino)-4-methyl-1-oxopentan-2-yl)-2-hydroxybenzamide], for which the inhibition at 10 µM in series [1] was determined as 17.4 ± 12.3%.

Turning to `CSCC[C@H](NC(=O)c1cc(Cl)ccc1O)C(=O)Nc1ccc([N+](=O)[O-])cc1Cl` [Compound 63, (S)-5-Chloro-N-(1-((2-chloro-4-nitrophenyl)amino)-4-(methylthio)-1-oxobutan-2-yl)-2-hydroxybenzamide], the inhibition at 10 µM in series [1] was determined as 34.8 ± 16.9%.

For `CC(C)[C@H](NC(=O)c1cc(Cl)ccc1O)C(=O)Nc1ccc(C(F)(F)F)cc1Cl` [Compound 66, (S)-5-Chloro-N-(1-((2-chloro-4-(trifluoromethyl)phenyl)amino)-3-methyl-1-oxobutan-2-yl)-2-hydroxybenzamide], in series [1], the inhibition at 10 µM came to 24.8 ± 12.3%.

For the compound `CS(=O)(=O)Nc1ccc(Cl)cc1C(=O)N[C@@H](Cc1ccccc1)C(=O)Nc1ccc([N+](=O)[O-])cc1Cl` [Compound 71, (S)-5-Chloro-N-(1-((2-chloro-4-nitrophenyl)amino)-1-oxo-3-phenylpropan-2-yl)-2-(methylsulfonamido)benzamide], in series [1], the inhibition at 10 µM was 88.9 ± 15.7%.

`Nc1ccc(NC(=O)c2cc(Cl)ccc2O)c(Cl)c1` [Compound 76, N-(4-Amino-2-chlorophenyl)-5-chloro-2-hydroxybenzamide]: the inhibition at 10 µM in series [1] is 0%.

Consider `CC(=O)Nc1ccc(NC(=O)c2cc(Cl)ccc2O)c(Cl)c1` [Compound 77, N-(4-Acetylamino-2-chlorophenyl)-5-chloro-2-hydroxybenzamide], for which, in series [1], the inhibition at 10 µM was found to be 0%.

Regarding `NCCNc1ccc(NC(=O)c2cc(Cl)ccc2O)c(Cl)c1` [Compound 123, N-(4-((2-Aminoethyl)amino)-2-chlorophenyl)-5-chloro-2-hydroxybenzamide hydrochloride], the inhibition at 10 µM in series [1] worked out at 19.4 ± 12.2%.

Turning to `O=C(Nc1ccc(NC2CCNCC2)cc1Cl)c1cc(Cl)ccc1O` [Compound 125, 5-Chloro-N-(2-chloro-4-(piperidin-4-ylamino)phenyl)-2-hydroxybenzamide hydrochloride], the inhibition at 10 µM in series [1] came to 39.7 ± 13.5%.

As to `O=C(Nc1ccc(NCC2CCNCC2)cc1Cl)c1cc(Cl)ccc1O` [Compound 127, 5-Chloro-N-(2-chloro-4-((piperidin-4-ylmethyl)amino)phenyl)-2-hydroxybenzamide], the inhibition at 10 µM in series [1] came out at 20.6 ± 10.3%.

As to `CN1CCC(CNc2ccc(NC(=O)c3cc(Cl)ccc3O)c(Cl)c2)CC1` [Compound 128, 5-Chloro-N-(2-chloro-4-(((1-methylpiperidin-4-yl)methyl)amino)phenyl)-2-hydroxybenzamide], the inhibition at 10 µM in series [1] was found to be 0%.

Consider `O=C(Nc1ccc(NCCN2CCOCC2)cc1Cl)c1cc(Cl)ccc1O` [Compound 129, 5-Chloro-N-(2-chloro-4-((2-morpholinoethyl)amino)phenyl)-2-hydroxybenzamide], for which the inhibition at 10 µM in series [1] was found to be 1.4 ± 12.3%.

As for `O=C(Nc1ccc(NC2CCCC2)cc1Cl)c1ccccc1O` [Compound 135, N-(2-Chloro-4-(cyclopentylamino)phenyl)-2-hydroxybenzamide], the inhibition at 10 µM in series [1] was 77.5%.

In the case of `O=C(Nc1ccc(NC2CCCC2)cc1Cl)c1cccc(Cl)c1` [Compound 137, 3-Chloro-N-(2-chloro-4-(cyclopentylamino)phenyl)benzamide], in series [1], the inhibition at 10 µM worked out at 82.9%.

Turning to `COc1ccc(Cl)cc1C(=O)Nc1ccc(NC2CCCC2)cc1Cl` [Compound 138, 5-Chloro-N-(2-chloro-4-(cyclopentylamino)phenyl)-2-methoxybenzamide], the inhibition at 10 µM in series [1] was 78.9%.

For `CN1CCC(Oc2ccc(Cl)cc2C(=O)Nc2ccc(NC3CCCC3)cc2Cl)CC1` [Compound 139, 5-Chloro-N-(2-chloro-4-(cyclopentylamino)phenyl)-2-((1-methylpiperidin-4-yl)oxy)benzamide], in series [1], the inhibition at 10 µM was found to be 0%.

Regarding `O=C(Cc1cc(Cl)ccc1O)Nc1ccc(NC2CCCC2)cc1Cl` [Compound 146, 2-(5-Chloro-2-hydroxyphenyl)-N-(2-chloro-4-(cyclopentylamino)phenyl)acetamide], the inhibition at 10 µM in series [1] was determined as 85.8 ± 5.8%.

The EC50 is the concentration giving half of the maximal effect. Take `O=C(NC1CCCCCC1)c1cc(Cl)ccc1O` [Compound 158, 5-Chloro-N-cycloheptyl-2-hydroxybenzamide]: in series [1], the 50% effective concentration (EC50) was found to be 4700 nM.

Consider `O=C(NC1CCOCC1)c1cc(Cl)ccc1O` [Compound 159, 5-Chloro-2-hydroxy-N-(tetrahydro-2H-pyran-4-yl)benzamide], for which the inhibition at 10 µM in series [1] is 0%.

With `C[C@H](NC(=O)c1cc(Cl)ccc1O)C1CCCCC1` [Compound 162, (S)-5-chloro-N-(1-cyclohexylethyl)-2-hydroxybenzamide], in series [1], the EC50 was found to be 510 nM and the inhibition at 10 µM came out at 100%.

With `O=C(NCC1CCOCC1)c1cc(Cl)ccc1O` [Compound 163, 5-Chloro-2-hydroxy-N-((tetrahydro-2H-pyran-4-yl)methyl)benzamide], the inhibition at 10 µM in series [1] amounted to 0%.

Take `O=C(NCCC1CCCCC1)c1cc(Cl)ccc1O` [Compound 165, 5-Chloro-N-(2-cyclohexylethyl)-2-hydroxybenzamide]: in series [1], the EC50 is 1000 nM and the IC50 stood at 1 ± 0.1 µM.

As for `CN1CCN(CCNC(=O)c2cc(Cl)ccc2O)CC1` [Compound 167, 5-Chloro-2-hydroxy-N-(2-(4-methylpiperazin-1-yl)ethyl)benzamide], the inhibition at 10 µM in series [1] is 0%.

Turning to `O=C(NCCN1CCOCC1)c1cc(Cl)ccc1O` [Compound 168, 5-Chloro-2-hydroxy-N-(2-morpholinoethyl)benzamide], in series [1], the half-maximal effective concentration (EC50) stood at 3730 nM and the inhibition at 10 µM amounted to 0%.

In the case of `O=C(c1cc(Cl)ccc1O)N1CCCCC1` [Compound 171], in series [1] (HAdV5-GFP, 10 μM, low MOI, 293β5 cell line), the “Plaque Assay (%) Inhibition (10 μM)” value came out at 0.00 ± 0.00%.

As for `CC(=O)N1CCN(C(=O)c2cc(Cl)ccc2O)CC1` [Compound 172, 1-(4-(5-Chloro-2-hydroxybenzoyl)piperazin-1-yl)ethanone], in series [1], the inhibition at 10 µM turned out to be 0%.

As for `CN1CCN(C(=O)c2cc(Cl)ccc2O)CC1` [Compound 173, (5-Chloro-2-hydroxyphenyl)(4-methylpiperazin-1-yl)methanone], the inhibition at 10 µM in series [1] worked out at 0%.
